We go through 94 compounds from PubChem BioAssay AID1902 (Broad Institute, 2009).

Activity calls are given as the source filed them.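 Rule for the calls: active = EC50 no more than a set limit of log units above the highest dose; inactive = the rest.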 Where only a bound is given, the exact number is not on record here.

This assay concerns the target S. pyogenes SKKanGAS, kanamycin survival, BacTiterGlo, 6 h. Put plainly: S. pyogenes SKKanGAS kanamycin growth inhibitors – SKKanGAS strain, luminescence, dose confirmation, streptokinase promoter inhibitor project, dose response (AID 1902).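 Note: lower survival reflects blocked streptokinase promoter driving kanamycin resistance gene.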
As usually defined, the EC50 is the concentration needed to bring the measured effect to its halfway point. Take `COc1ccc(C(Nc2cc(C)ccn2)c2ccc3ccc(C)nc3c2O)cc1` (centres undefined): the EC50 is 12.5 µM.

As to `N=C1SCC(=O)N1c1ncc(Cc2ccc(F)cc2)s1`, the EC50 is 1 µM.

In the case of `Cc1cc(C)c(OCC(=O)Nc2ccccc2N2CCCCC2)c(C)c1`, the EC50 was 4.38 µM.

For `CCCCCCC(=O)N/N=C/c1c(O)n(CCCC)c(=S)[nH]c1=O`, the EC50 is 2.12 µM.

Take `Cc1ccccc1NC(=O)C(=O)NC(C)CCc1ccccc1` (centres undefined): the EC50 is > 15 µM (inactive).

Consider `CCCCCCn1c(=O)c(C(=O)Nc2cnccn2)c(O)c2ccccc21`, for which the EC50 was 2.98 µM.

On to `COc1cnc(-c2ccccn2)nc1Oc1ccccc1Cl`, for which the half-maximal effective concentration (EC50) was 14.4 µM.

Regarding `N=C1SC(c2ccccc2)C(=O)N1c1ncc(Cc2ccccc2Cl)s1` (centres undefined), the EC50 is 0.177 µM.

In the case of `O=C(Nc1cccc(C(F)(F)F)c1)Oc1ccc(Cl)c2cccnc12`, the concentration for a half-maximal effect (EC50) is 1.94 µM.

On to `Cc1ccc(O)c(C2=NNC(c3ccc(Cl)cc3)C2)c1` (centres undefined), for which the EC50 is 7.44 µM.

In the case of `CCc1ccc(N=C2NC(=O)/C(=C/c3cc(OC)c(O)c(OC)c3)S2)cc1`, the EC50 is 4.44 µM.

Regarding `CCCCC[n+]1ccn(C2=C([O-])c3ccccc3C(=O)/C2=N\S(=O)(=O)c2ccccc2)c1`, the concentration for a half-maximal effect (EC50) is 2.58 µM.

On to `CCn1c(=O)n(CC)c2cc(N3CCCC3)c(NC(=O)c3cc(Br)ccc3OC)cc21`, for which the EC50 is 4.28 µM.

Consider `C/C(=N\Nc1ccc(C(=O)O)cc1)c1ccc2c(c1)Nc1ccccc1S2`, for which the EC50 was 2.45 µM.

Consider `O=C1C2C(c3ccccc3)=NN(c3ccccc3)C2C(=O)N1c1ccccc1` (centres undefined), for which the EC50 is 0.704 µM.

For `CCOc1ccc(/C=C2/Sc3ccc(C(=O)N4CCN(C(=O)c5ccco5)CC4)cc3N(C)C2=O)cc1OC`, the half-maximal effective concentration (EC50) is 4.19 µM.

On to `O=[N+]([O-])c1c(Nc2cccc(O)c2)cc(Cl)c2nonc12`, for which the EC50 was 6.5 µM.

Consider `COc1cc(C(=O)N/N=C/c2ccc(OC(=O)c3ccccc3Cl)c(OC)c2)ccc1O`, for which the 50% effective concentration (EC50) is 5.64 µM.

`O=C(O)c1ccc(N2CCCCS2(=O)=O)cc1`: the EC50 was > 15 µM (inactive).

Turning to `Cc1ccc(N2C(=O)C3CC(c4ccccc4)=C4C5C=CC(C6C(=O)N(c7ccc(C)cc7)C(=O)C56)C4C3C2=O)cc1` (centres undefined), the EC50 was 1.39 µM.

Turning to `Fc1ccc(-[n+]2nc(Nc3ccccc3)sc2-c2c3ccccc3cc3ccccc23)cc1`, the EC50 is 5.95 µM.

As for `CCCC(=O)NCCc1ccc(F)cc1`, the EC50 is > 15 µM (inactive).

Turning to `CC1CCCN(S(=O)(=O)c2ccc(C(=O)Nc3nnc(C4CC4)o3)cc2)C1` (centres undefined), the concentration giving a half-maximal response (EC50) was 3.3 µM.

Turning to `CCOC(=O)c1nn(-c2cccc(OC)c2)c2nc(Nc3ccccc3)cc(=O)n12`, the half-maximal effective concentration (EC50) was 4.15 µM.

Consider `Oc1c(Br)cc(Br)cc1/C=N/c1nc2c(s1)CCCC2`, for which the 50% effective concentration (EC50) is 5.86 µM.

On to `Oc1c(N=NC(=S)Nc2ccccc2F)c2ccccc2n1Cc1cccc(Cl)c1`, for which the 50% effective concentration (EC50) is 0.658 µM.

As for `COc1cccc(-c2nc(N3CC(C)CC(C)C3)c3ccccc3n2)c1O` (centres undefined), the EC50 was 3.05 µM.

Turning to `O=S(=O)(Nc1cccc2ncccc12)c1cccs1`, the EC50 was 2.76 µM.

Turning to `O=[N+]([O-])c1cc(S(=O)(=O)Nc2cccc(Cl)c2)ccc1N=Nc1c(O)[nH]c2ccccc12`, the concentration giving a half-maximal response (EC50) is 3.61 µM.

For `CC(C)N1CCc2c(sc(NC(=O)c3ccc(S(=O)(=O)N(C)CC4CCCO4)cc3)c2C(N)=O)C1` (centres undefined), the EC50 was > 15 µM (inactive).

Take `COc1cc(C(=O)Nc2ccc(-c3nc4cc(C)ccc4o3)c(O)c2)cc(OC)c1OC`: the concentration for a half-maximal effect (EC50) is 3.9 µM.

Take `Cc1ccc(NC(=S)NC2CCSc3ccccc32)cc1C` (centres undefined): the half-maximal effective concentration (EC50) is 4.63 µM.

In the case of `Cc1cccc(C)c1OCC(O)Cn1c2ccccc2c2ccccc21` (centres undefined), the EC50 was 3.83 µM.

Regarding `Cc1cccnc1NCc1ccc(O)c2ncccc12`, the concentration for a half-maximal effect (EC50) was 5.65 µM.

Regarding `O=C1N/C(=N\N=C\c2cccnc2)SC1Cc1ccc(SC(F)F)cc1` (centres undefined), the EC50 is 3.08 µM.

Turning to `COC(=O)C1CN(C#N)N(c2ccc(Cl)cc2)C12c1ccccc1-c1ccccc12` (centres undefined), the EC50 was 4.21 µM.

As to `CCOC(=O)N1CCN(C(=O)c2ccc3c(c2)NC(=O)/C(=C/c2ccccc2)S3)CC1`, the concentration giving a half-maximal response (EC50) is 1.59 µM.

In the case of `CC1CCCCN1S(=O)(=O)c1ccc(C(=O)Nc2nnc(-c3cccs3)o2)cc1` (centres undefined), the EC50 was 0.659 µM.

In the case of `O=C(Nc1ccccc1Cl)/C(Cl)=C(\Cl)S(=O)c1ccccc1` (centres undefined), the concentration for a half-maximal effect (EC50) is 1.98 µM.

Consider `O=C(Nc1ccc(-c2csc(Nc3ccccc3)n2)cc1)c1cccc(C(F)(F)F)c1`, for which the EC50 was > 15 µM (inactive).

Regarding `O=C(CCC(=O)Nc1ccc(Br)cc1)N/N=C/c1ccccc1O`, the 50% effective concentration (EC50) was 5.07 µM.

Consider `CCOc1cc(-c2cc(-c3ccc(NC(C)=O)cc3)nc(N)c2C#N)ccc1O`, for which the concentration giving a half-maximal response (EC50) is 0.919 µM.

As to `O=C(NC(c1ccc(Cl)cc1)c1cc(Cl)c2cccnc2c1O)c1cccnc1` (centres undefined), the concentration for a half-maximal effect (EC50) is 0.278 µM.

As to `O=C(CSc1nc2ccccc2c(=O)n1NC(=O)c1ccccc1)c1ccc(Cl)cc1`, the EC50 is 11.3 µM.

Turning to `O=C(NC(=S)N1CCN(c2nc(-c3ccccc3)cs2)CC1)c1cccnc1`, the EC50 is 4.08 µM.

As for `COc1cc(OC)cc(C(=O)NC(=S)NNC(=O)Cc2cccs2)c1`, the EC50 was 0.716 µM.

With `COc1ccc2oc(C(=O)Nc3nc4ccccc4[nH]3)c(C)c2c1`, the 50% effective concentration (EC50) is 5.62 µM.

For the compound `Cn1c(C(=O)N2CCN(c3ccc([N+](=O)[O-])cc3)CC2)cc2c(=O)[nH]c3ccccc3c21`, the EC50 is 4.56 µM.

For `COc1ccc(Cl)cc1C(Nc1cccnc1)c1ccc2cccnc2c1O` (centres undefined), the EC50 was 6.28 µM.

Take `CCCOc1ccc(C(=O)NC(=S)NNC(=O)c2c(-c3ccccc3)noc2C)cc1`: the EC50 is 0.274 µM.

Take `Cc1nn(-c2nc3ccccc3[nH]2)c(N)c1-c1ccc(Cl)cc1`: the EC50 is 1.53 µM.

For `O=C(CN(c1ccc(Cl)c(C(F)(F)F)c1)S(=O)(=O)c1ccccc1)N/N=C/c1cccc2c1OCCO2`, the EC50 is 13.4 µM.

With `COc1ccc(C#Cc2ccc3c(=O)c4ccccc4n(C)c3c2)cc1`, the EC50 was 13.9 µM.

For `C=CCNC(=S)N/N=C(\C)c1ccccn1`, the EC50 was 1.76 µM.

As for `C/C(=N/Nc1nc(-c2ccccc2F)nc2ccccc12)c1ccccc1O`, the EC50 was 8.27 µM.

For `O=C(/C(=N\Nc1ccc([N+](=O)[O-])cc1)Sc1nnnn1-c1ccccc1)c1ccccc1`, the EC50 is 5.46 µM.

`CC(C)(C)c1ccc(OCCCC(=O)NC2=NCCS2)cc1`: the EC50 is 3.87 µM.

In the case of `Oc1cccc2ccc(/C=C/c3ccc(Br)s3)nc12`, the EC50 is 1.38 µM.

For `CC(C)(C)C(=O)NC(=S)NNC(=O)c1ccc(Cl)cc1Cl`, the EC50 is 0.402 µM.

As to `Cc1ccc(C(=O)NNC(=S)NC(=O)c2ccco2)cc1`, the EC50 was 0.905 µM.

With `CCOC(=O)C1=C(C)NC2=C(C(=O)c3ccccc32)C1c1ccc([N+](=O)[O-])o1` (centres undefined), the EC50 was 12.8 µM.

Turning to `O=C(CN1CCCC1)Nc1ccc(NC(=O)Nc2ccccc2)cc1`, the EC50 is > 15 µM (inactive).

`O=C(O)c1ccc(NC(=S)NC(=O)c2cccc(COc3ccccc3)c2)cc1`: the 50% effective concentration (EC50) was 4.45 µM.

`Oc1cccc2ccc(/C=C/c3ccccc3Br)nc12`: the half-maximal effective concentration (EC50) is 0.158 µM.

Turning to `Cc1ccc(Cn2c(Cc3ccccc3)nc3ccccc32)cc1`, the EC50 is 14.2 µM.

`Clc1ccc(N2COC3c4cccc5cccc(c45)C32)cc1` (centres undefined): the EC50 was 7.55 µM.

Turning to `CCOc1ccc(C(=O)N/N=C(\c2ccccc2)c2ccccn2)cc1`, the 50% effective concentration (EC50) is 5.71 µM.

For the compound `O=C(N/N=C/c1c[nH]c2ccccc12)c1cc(-c2ccc(-c3ccccc3)cc2)n[nH]1`, the EC50 was 2.89 µM.

Turning to `COc1cc2c(C#N)c(N3CCN(c4ccccc4OC)CC3)nc(N)c2c(N)n1`, the EC50 was 4.67 µM.

As for `C=CCn1c(O)c(N=NC(=S)Nc2ccccc2F)c2ccccc21`, the concentration giving a half-maximal response (EC50) was 0.572 µM.

For the compound `CCn1cc(C(=O)O)c(=O)c2cc(F)c(N3CCN(S(=O)(=O)c4ccc(NC(C)=O)cc4)CC3)cc21`, the EC50 is 4.65 µM.

Consider `O=[N+]([O-])c1ccc(/C=N/Nc2nc(-c3ccccc3)c3cc(Br)ccc3n2)o1`, for which the concentration giving a half-maximal response (EC50) is 0.466 µM.

Consider `COc1ccccc1CNC(=O)c1ccc(-c2ccccc2Cl)o1`, for which the half-maximal effective concentration (EC50) is 9.96 µM.

In the case of `CN(C)CCNC=C(C(=O)Nc1ccc(Cl)cc1Cl)C(=O)Nc1ccc(Cl)cc1Cl`, the EC50 was 3.38 µM.

As for `O=C1C(=O)c2ccccc2-c2ccccc21`, the EC50 was 1.26 µM.

Regarding `CC1=NN(c2nc3ccccc3[nH]2)C(=O)C1Cc1ccccc1` (centres undefined), the concentration giving a half-maximal response (EC50) is 0.507 µM.

In the case of `Cc1ccc(C(=O)OC2OC(=O)C(Cl)=C2N2CCOCC2)cc1` (centres undefined), the EC50 was 0.884 µM.

As for `O=C(Nc1cc(Cl)ccc1-n1cncn1)c1ccc([N+](=O)[O-])o1`, the 50% effective concentration (EC50) was 6.73 µM.

Regarding `C=CCn1c(COc2ccccc2)nnc1SC(C)C(=O)N/N=C/c1cc(Cl)ccc1O` (centres undefined), the EC50 was 1.7 µM.

As to `COc1cccc(/C=C/c2ccc3cccc(O)c3n2)c1OC`, the EC50 is 0.887 µM.

Consider `CC(C)(C)OC(=O)NCCCC[C@H](NC(=O)c1[nH]cnc1C(=O)Nc1ccc(Cl)cc1)C(=O)OC(C)(C)C`, for which the EC50 is 2.19 µM.

As for `Brc1ccc(C2C3=C(Nc4ncnn42)c2ccccc2OC3c2ccncc2)cc1` (centres undefined), the EC50 is 10.1 µM.

Turning to `CC1CCN(c2ccccc2NC(=O)c2cc3ccccc3o2)CC1`, the EC50 is 11.7 µM.

With `CCN1C(=O)/C(=C\c2ccc(-c3ccc([N+](=O)[O-])cc3OC)o2)SC1=Nc1cccc(C(=O)O)c1`, the 50% effective concentration (EC50) was 3.57 µM.

With `CNC(=O)C(=O)NCC1OCCN1S(=O)(=O)c1ccc(OC)c(OC)c1` (centres undefined), the EC50 is > 15 µM (inactive).

In the case of `CC1=NN(C(N)=S)C(=O)C1N=Nc1c(Br)cc(Br)cc1Br` (centres undefined), the 50% effective concentration (EC50) is 2.78 µM.

In the case of `CC(C)=CCC/C(C)=C/Cc1c(O)ccc(C(=O)/C=C/c2ccc(O)cc2)c1O`, the EC50 is 1.02 µM.

`COC(=O)c1ccc(/C=C/c2ccc3cccc(OC(C)=O)c3n2)cc1`: the concentration for a half-maximal effect (EC50) was 1.18 µM.

With `Cc1nn(-c2ccccc2)c(C)c1/C=N/Nc1nc2ccccc2[nH]1`, the 50% effective concentration (EC50) was 9.71 µM.

For `CCc1ccc2[nH]c(=O)c(C3C(C#N)=C(N)Oc4c3ccc3cccnc43)cc2c1` (centres undefined), the EC50 is 1.63 µM.

For `CC(C)c1ccc(C(=O)NC(=S)Nc2ccc3[nH]c(=O)[nH]c3c2)cc1`, the concentration for a half-maximal effect (EC50) was 6.26 µM.

With `Cc1cccc(N2CCN(C(=O)c3cc4n(n3)C(C(F)(F)F)CC(c3ccco3)N4)CC2)c1C` (centres undefined), the EC50 was 4.2 µM.

Consider `Cc1cc(C(F)F)nn1CC(=O)NC1C(=O)N2C(C(=O)O)=C(CSc3nnnn3C)CSC12` (centres undefined), for which the 50% effective concentration (EC50) is < 0.06 µM.

On to `O=C(/C=C/c1cccc(Cl)c1)c1ccc([N+](=O)[O-])o1`, for which the EC50 was 2.23 µM.
